By MIC is commonly meant the lowest concentration found to suppress growth.

We go through six compounds from ChEMBL document CHEMBL4342458, “Reisolation and Configurational Reinvestigation of Cottoquinazolines E-G from an Arthropod-Derived Strain of the Fungus Neosartorya fischeri” (2020).

Holding throughout (type): functional
The test system of test [1] is Klebsiella pneumoniae. The test can be described thus: Antibacterial activity against Klebsiella pneumoniae ATCC BAA2146 assessed as reduction in microbial growth after 16 hrs by broth microdilution method. The note with it: ATCC BAA2146, 16 h.
The subject of test [2] is Enterococcus faecalis. Description: Antibacterial activity against Enterococcus faecalis ATCC 29212 assessed as reduction in microbial growth after 16 hrs by broth microdilution method. The note with it: ATCC 29212, 16 h. For orientation: Broth dilution looks for growth in wells or tubes with falling amounts of substance.
Test [3] has as its system Staphylococcus aureus. Description: Antibacterial activity against methicillin-resistant Staphylococcus aureus ATCC 43300 assessed as reduction in microbial growth after 16 hrs by broth microdilution method. The note with it: ATCC 43300, 16 h.
Test [4] deals with Escherichia coli. The test can be described thus: Antibacterial activity against ESBL-producing Escherichia coli ATCC 35218 assessed as reduction in microbial growth after 16 hrs by broth microdilution method. The note with it: ATCC 35218, 16 h.
Test [5] has as its system Acinetobacter baumannii. The test can be described thus: Antibacterial activity against Acinetobacter baumannii ATCC 19606 assessed as reduction in microbial growth after 16 hrs by broth microdilution method. The note with it: ATCC 19606, 16 h.
Test [6] concerns Pseudomonas aeruginosa. The test can be described thus: Antibacterial activity against Pseudomonas aeruginosa ATCC 27853 assessed as reduction in microbial growth after 16 hrs by broth microdilution method. The note with it: ATCC 27853, 16 h.

`C[C@@H]1N[C@H]2N(C1=O)c1ccccc1[C@@]21C[C@H]2C(=O)N[C@@H](O1)c1nc3ccccc3c(=O)n12`: the minimal inhibitory concentration (MIC) in test [1], in test [2], in test [3], in test [4], in test [5] and in test [6] was ≥ 100 µg/mL each time.
Take `C[C@@H]1N[C@H]2N(C1=O)c1ccccc1[C@@]21C[C@H]2C(=O)N(C)[C@@H](O1)c1nc3ccccc3c(=O)n12`: the minimal inhibitory concentration (MIC) is ≥ 100 µg/mL in test [1]; 16 µg/mL in test [2]; ≥ 100 µg/mL in test [3]; 8 µg/mL in test [4]; 32 µg/mL in test [5]; 32 µg/mL in test [6].
As for `C[C@H]1C(=O)N2c3ccccc3[C@@]3(O)C[C@H]4C(=O)N[C@H](c5nc6ccccc6c(=O)n54)N1[C@@H]23`, the MIC in test [1], in test [2], in test [3], in test [4], in test [5] and in test [6] was ≥ 100 µg/mL throughout.
As to `NCC[C@H](O)C(=O)N[C@@H]1C[C@H](N)[C@@H](O[C@H]2O[C@H](CN)[C@@H](O)[C@H](O)[C@H]2O)[C@H](O)[C@H]1O[C@H]1O[C@H](CO)[C@@H](O)[C@H](N)[C@H]1O` [AMIKACIN], the MIC in test [1] worked out at 8 µg/mL; in test [4] it was 4 µg/mL; in test [5], 2 µg/mL; in test [6] it was 2 µg/mL.
As for `CO/N=C(\C(=O)N[C@@H]1C(=O)N2C(C(=O)O)=C(CSc3nc(=O)c(O)nn3C)CS[C@H]12)c1csc(N)n1` [CEFTRIAXONE], the MIC came out at 8 µg/mL in test [1], 8 µg/mL in test [4], 8 µg/mL in test [5] and 2 µg/mL in test [6].
Consider `CN[C@H](CC(C)C)C(=O)N[C@H]1C(=O)N[C@@H](CC(N)=O)C(=O)N[C@H]2C(=O)N[C@H]3C(=O)N[C@H](C(=O)N[C@H](C(=O)O)c4cc(O)cc(O)c4-c4cc3ccc4O)[C@H](O)c3ccc(c(Cl)c3)Oc3cc2cc(c3O[C@@H]2O[C@H](CO)[C@@H](O)[C@H](O)[C@H]2O[C@H]2C[C@](C)(N)[C@H](O)[C@H](C)O2)Oc2ccc(cc2Cl)[C@H]1O` [VANCOMYCIN], for which the MIC in test [2] was determined as 0.5 µg/mL.
